Measurements from patent publication US20230024991A1, “PRODRUGS OF ACYL CARNITINES” (ATAI Life Sciences AG, priority 2021, published 2023).

Tests used:
[1] = Determination of plasma half life, human plasma; format: in vitro ADME; conditions: 37° C. (Table 1), read-out: Human Mean t1/2
Procedure: (§1) Human, rat, and dog plasma were dialyzed against PBS buffer, pH 7.4 using Thermo Slide-A-Lyzer™ G2 Dialysis Cassettes for 24 hours at 4° C. prior to the experiment.
(§2) The assay was carried out in 96-well microtiter plates. Prodrugs and the reference compound (propantheline) at a final concentration of 1 μM were incubated separately in singlet at 37° C. with mouse, rat, dog, monkey or human plasma for 0, 30, 60, 120, 240, and 1440 min. At the end of each incubation time point, 300 μL of the quenching solutions (50% acetonitrile, 50% methanol, 0.05% formic acid) containing the internal standards (bucetin and d3-carnitine) was added to each well. The incubation plates were sealed, vortexed, and centrifuged at 10° C. for 15 minutes at 4000 rpm. The supernatant was transferred to fresh plates for LC/MS/MS analysis of the test compounds.
(§3) All samples were analyzed by LC/MS/MS using an AB Sciex API 4000 instrument (AB Sciex LLC, Framingham, Mass.), coupled to a Shimadzu LC-20AD LC Pump system (Shimadzu North America, Columbia, Md.). […]
(§4) The extent of metabolism was calculated based on the disappearance of prodrugs, compared to their initial concentration. The initial rates of clearance of prodrugs were calculated using linear regression plot of semi-log % remaining of prodrugs versus time. […]

[2] = Determination of plasma half life, rat plasma; format: in vitro ADME; conditions: pH 7.4, 37° C. (Table 4), read-out: Mean t1/2
Procedure: as §1, §2, §3, §4

[3] = Determination of plasma half life, dog plasma; format: in vitro ADME; conditions: pH 7.4, 37° C. (Table 4)
Procedure: as §1, §2, §3, §4

[4] = cited from earlier work
[5] = normal baseline conditions; cited from earlier work

SMILES	half-life at 1 μM [1] [h]	half-life at 1 μM [2] [h]	half-life at 1 μM [3] [h]	bioavailability of dietary L-carnitine ([4]; dietary, depends on the amount in the meal)	bioavailability ([4]; oral administration of large amounts of exogenous carnitine (1-6 g))	tubular reabsorption in the kidney [5]
CCOC(=O)C[C@H](C[N+](C)(C)C)OC(=O)CC [Compound 3, (R)-4-ethoxy-N,N,N-trimethyl-4-oxo-2-(propionyloxy)butan-1-aminium chloride]	9.16	8.79	22.7	–	–	–
CCCCC(=O)O[C@H](CC(=O)OCC)C[N+](C)(C)C [Compound 4, (R)-4-ethoxy-N,N,N-trimethyl-4-oxo-2-(pentanoyloxy)butan-1-aminium chloride]	0.927	4.33	11.7	–	–	–
C[N+](C)(C)C[C@H](O)CC(=O)[O-] [L-carnitine]	–	–	–	54-87%	5-18%	about 99%
